What was measured:
human CCR2 [1] = molecular target: T1, human CCR2 (Homo sapiens, UniProt P41597); experiment: CCR2 functional calcium assay (FLIPR calcium flux, hMCP-1 challenge); assay type: cell-based; set-up: expressed in transfected cells; host or cells: HEK293 EBNA cells; conditions: HEK293 EBNA cells transfected with human CCR2, hMCP-1 challenge; read-out: Functional CCR2 fKi
Procedure, shortened: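 FLIPR Fluo-4 calcium flux in HEK293 EBNA cells transfected with human CCR2, with non-transfected cells as control. Compounds (10-point 1:3 curves, typically 30 μM to 0.5 nM) were added in HBSS/20 mM HEPES/0.1% BSA, pH 7.4, followed by MCP-1 challenge. Peak minus basal signal was expressed as % of EC50 MCP-1 response.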

human CCR2 [2] = molecular target: T1, human CCR2; experiment: CCR2 binding assay ([125I]-MCP-1 displacement, SPA); set-up: expressed in transfected cells; host or cells: HEK293 EBNA cells (membrane preparation); conditions: human CCR2-HEK293 EBNA membranes
Procedure: The binding of test compounds to the CCR2 receptor was evaluated using [^125I]-MCP-1.
Briefly, 25 μL assay buffer (25 mM HEPES, pH 7.4, 5 mM MgCl2, 1 mM CaCl2, 0.2% (w/v) protease free BSA, 100 μg/mL bacitracine and 0.1 M NaCl) was placed into total binding wells and 25 μL unlabelled ligand (0.4 μM MCP-1, for determination of non-specific binding) was placed into non-specific binding wells. [^125I]-MCP-1 (25 μL), human CCR2-HEK293 EBNA membrane preparation (25 μL) and SPA beads (25 μL) were added to all the wells. The wells were incubated for 4 h and counted for 1 min/well in a Perkin Elmer Topcount NXT.
The SPA beads (wheat germ agglutinin (WGA) PEI Type A PVT 0.25 mg/well) were prepared by reconstituting lyophilised bead to 100 mg/mL with de-ionised water and further diluting in assay buffer to give 10 mg/mL. The radioligand ([^125I]-MCP-1) was prepared by dilution in assay buffer to give 0.32 μCi/mL, ˜17600 dpm/25 μL (specific activity 2000 Ci/mMol). The final assay concentration was 0.04 nM. The human CCR2-HEK293 EBNA cells membranes were prepared as follows: cells were spun down at 1000×g for 3 min at room temperature, washed in PBS and spun down again. The cells were then homogenised with an Ultra Turrax at setting 6 in 5-10 mL ice cold buffer A (EDTA 10 mM, HEPES 10 mM, pH 7.4) for 10 sec. Following dilution with further ice cold buffer A and spinning at 20000×g for 20 min at 4° C., the mixture was re-homogenised in 5-10 mL ice cold buffer B (EDTA 0.1 mM, HEPES 10 mM, pH 7.4) and spun at 20000×g for 20 min at 4° C. The protein was assayed and re-suspended in buffer C (Buffer B+1 tablet/10 mL of Roche protease inhibitor cocktail) at 3 mg/mL. Before use, the membranes were thawed and diluted with assay buffer to give 80 μg/mL (2 μg/well).
Specific binding was determined as the difference between total binding in the absence of antagonist and binding in the presence of excess antagonist (non-specific binding). Data was expressed as a percentage of specific binding and analysed by a 4-parameter logistic equation using GraphPad Prism 4 software (GraphPad, San Diego, Calif., USA) to yield IC50 values. Ki values were calculated from the IC50 values using the correction for radioligand concentration.

[3] = system: rat model of STZ induced diabetes; experiment: rat model of STZ induced diabetes (diabetic nephropathy), kidney histology; assay type: in vivo; conditions: male Wistar rats, STZ 50 mg/kg i.p., 8 mg/kg/day oral, kidney day 43, p<0.01 vs STZ-vehicle
Excerpt: Diabetic nephropathy is a common manifestation of renal disease and is defined as the progressive development of renal insufficiency in the setting of hyperglycaemia. This sustained hyperglycaemia causes glomerular mesangial expansion through increased synthesis and decreased degradation of extracellular matrix protein, which progressively destroys the glomerular capillaries, eventually leading to proteinuria and renal failure. Animal models for diabetes can be employed for assessing the mechanisms of the disease, screening potential therapies for the treatment of this condition, and evaluation of therapeutic options. […] A single intraperitoneal injection of STZ in rats results in selective damage of the insulin producing beta cells in the pancreas causing insulin deficiency and subsequent hyperglycaemia after 48 hours. Over the time course of this procedure which can last from 3 weeks to many months, animals develop modest elevations in albuminuria and serum creatinine and some of the histological lesions associated with diabetic nephropathy. The aim of this study was to determine the efficacy of a test compound CCR2 antagonist (Example 33) in a rat model of STZ induced diabetes.
Male Wistar rats were given daily oral administration of the vehicle (30% w/v hydroxypropyl-beta-cyclodextrin (HPBC)) in saline to groups 1 and 3, or oral administration of Example 33 (8 mg/kg/day) to group 2, from 3 days prior to administration of streptozotocin. On day 0 streptozotocin was injected (50 mg/kg body wt, i.p. dissolved in 20 mM sodium citrate buffer) to rats in groups 1 and 2 (STZ groups). Group 3 rats (sham) were injected with an equivalent volume of 20 mM sodium citrate buffer. On day 43 all animals were culled, the left kidney was removed and cut in a sagittal section. These tissue samples were fixed by immersion in 10% (wt/vol) formaldehyde in phosphate-buffered saline (PBS) (0.01 mol/L, pH 7.4) at room temperature. […] The measured parameters were 1) monocyte and macrophage infiltration, 2) tubular damage and 3) glomerular damage. […]

T1 sequence (P41597 whole entry): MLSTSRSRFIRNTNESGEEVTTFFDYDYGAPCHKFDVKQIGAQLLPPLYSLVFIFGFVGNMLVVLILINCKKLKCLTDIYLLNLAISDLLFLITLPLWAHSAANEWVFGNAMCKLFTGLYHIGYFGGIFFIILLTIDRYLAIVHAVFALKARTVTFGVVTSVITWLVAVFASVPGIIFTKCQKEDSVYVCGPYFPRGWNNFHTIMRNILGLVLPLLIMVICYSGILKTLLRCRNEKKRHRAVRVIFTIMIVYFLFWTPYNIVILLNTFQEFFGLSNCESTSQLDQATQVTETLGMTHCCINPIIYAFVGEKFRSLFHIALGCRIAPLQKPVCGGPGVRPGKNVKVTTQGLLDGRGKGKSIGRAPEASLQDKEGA

Row | SMILES | Ki (human CCR2 [1]) [nM] | Ki (human CCR2 [2]) [nM] | glomerular damage (semiquantitative score) [3] | monocyte and macrophage infiltration (semiquantitative score) [3] | tubular damage (semiquantitative score) [3]
1 | CCCc1nc2ccnn2c(O)c1Cc1ccc(C(F)(F)F)c(F)c1 [Example 16, 6-{[3-Fluoro-4-(trifluoromethyl)phenyl]-methyl}-5-propylpyrazolo[1,5-a]-pyrimidin-7-ol] | < 10 | 100 to 1000 |  |  | 
2 | Cc1nc2ccnn2c(O)c1Cc1ccc(Cl)cc1 [Example 1, 6-[(4-Chlorophenyl)methyl]-5-methylpyrazolo[1,5-a]pyrimidin-7-ol] | 10 to 100 | 100 to 1000 |  |  | 
3 | CCc1nc2ccnn2c(O)c1Oc1ccc(Cl)c(Cl)c1 [Example 64, 6-(3,4-Dichlorophenoxy)-5-ethyl-pyrazolo[1,5-a]pyrimidin-7-ol] | < 10 | 10 to 100 |  |  | 
4 | Oc1c(Cc2cccc(Cl)c2)c(C2CC2)nc2ccnn12 [Example 21, 6-[(3-Chlorophenyl)methyl]-5-cyclo-propylpyrazolo[1,5-a]pyrimidin-7-ol] | < 10 | 10 to 100 |  |  | 
5 | CC(C)c1nc2ccnn2c(O)c1Cc1ccc(F)c(Cl)c1 [Example 37, 6-[(3-Chloro-4-fluorophenyl)methyl]-5-(propan-2-yl)pyrazolo[1,5-a]pyrimidin-7-ol] | < 10 | < 10 |  |  | 
6 | Oc1c(Cc2cccc(C(F)(F)F)c2)c(C2CC2)nc2ccnn12 [Example 22, 5-Cycloproyl-6-{[3-(trifluoromethyl)-phenyl]methyl}pyrazolo[1,5-a]pyrimidin-7-ol] | < 10 | 10 to 100 |  |  | 
7 | CCOC(=O)c1nc2ccnn2c(O)c1Cc1cccc(Cl)c1 [Example 70, Ethyl 6-[(3-chlorophenyl)methyl]-7-hydroxypyrazolo[1,5-a]pyrimidine-5-carboxylate] | < 10 | 100 to 1000 |  |  | 
8 | Oc1c(Oc2ccc(Br)cc2)c(C2CC2)nc2ccnn12 [Example 65, 6-(4-Bromophenoxy)-5-cyclopropyl-pyrazolo[1,5-a]pyrimidin-7-ol] | < 10 | 100 to 1000 |  |  | 
9 | Oc1c(Cc2cc(F)cc(C(F)(F)F)c2)c(C2CC2)nc2ccnn12 [Example 33, 5-Cyclopropyl-6-{[3-fluoro-5-(trifluoro-methyl)phenyl]methyl}pyrazolo[1,5-a]-pyrimidin-7-ol] | < 10 | 10 to 100 | statistically significant effect reducing | statistically significant effect reducing | statistically significant effect reducing
10 | CCOC(=O)c1nc2ccnn2c(O)c1Cc1ccc(Cl)c(Cl)c1 [Example 72, Ethyl 6-[(3,4-dichlorophenyl)methyl]-7-hydroxypyrazolo[1,5-a]pyrimidine-5-carboxylate] | < 10 | 10 to 100 |  |  | 
11 | CC(C)c1nc2ccnn2c(O)c1Cc1ccc(Cl)c(F)c1 [Example 38, 6-[(4-Chloro-3-fluorophenyl)methyl]-5-(propan-2-yl)pyrazolo[1,5-a]pyrimidin-7-ol] | < 10 |  |  |  | 
12 | CC(C)c1nc2ccnn2c(O)c1Cc1ccc(Cl)c(Cl)c1 [Example 41, 6-[(3,4-Dichlorophenyl)methyl]-5-(propan-2-yl)pyrazolo[1,5-a]pyrimidin-7-ol] | < 10 |  |  |  | 
13 | CC(C)c1nc2ccnn2c(O)c1Cc1ccc(F)c(C(F)(F)F)c1 [Example 40, 6-{[4-Fluoro-3-(trifluoromethyl)phenyl]-methyl}-5-(propan-2-yl)pyrazolo[1,5-a]-pyrimidin-7-ol] | < 10 | 100 to 1000 |  |  | 
14 | Oc1c(Cc2cc(F)cc(C(F)(F)F)c2)c(C2CCC2)nc2ccnn12 [Example 48, 5-Cyclobutyl-6-{[3-fluoro-5-(trifluoro-methyl)phenyl]methyl}pyrazolo[1,5-a]-pyrimidin-7-ol] | < 10 |  |  |  | 
15 | COCCc1nc2ccnn2c(O)c1Cc1ccc(Cl)cc1 [Example 54, 6-[(4-Chlorophenyl)methyl]-5-(2-methoxyethyl)pyrazolo[1,5-a]pyrimidin-7-ol] | 10 to 100 |  |  |  | 
16 | CSCCNC(=O)c1cnn2c(O)c(Cc3ccc(Cl)cc3)c(C)nc12 [Example 108, 6-[(4-Chlorophenyl)methyl]-7-hydroxy-5-methyl-N-[2-(methylsulfanyl)ethyl] pyrazolo[1,5-a]pyrimidine-3-carboxamide] | 100 to 1000 |  |  |  | 

— patent publication US20130252951A1, “7-HYDROXY-PYRAZOLO[1,5-A] PYRIMIDINE COMPOUNDS AND THEIR USE AS CCR2 RECEPTOR ANTAGONISTS” (Proximagen Limited, priority 2010, published 2013)
